Values of other authors as cited in patent US20050043786A1, “Methods and apparatus for treatment of aneurysmal tissue” (Medtronic AVE, Inc., priority 2003, published 2005).

Conditions: for route of clearance / elimination: in vivo

| Compound | route of clearance / elimination | other results |
| --- | --- | --- |
| C[C@H](CS)C(=O)N1CCC[C@H]1C(=O)O [captopril] |  | bioavailability (given orally): about 75% |
| CCC(=O)O[C@@H](O[P@](=O)(CCCCc1ccccc1)CC(=O)N1C[C@H](C2CCCCC2)C[C@H]1C(=O)O)C(C)C [fosinopril] | balanced elimination by the liver and kidneys |  |
| NCCCC[C@H](N[C@@H](CCc1ccccc1)C(=O)O)C(=O)N1CCC[C@H]1C(=O)O [lisinopril] |  | time of peak concentrations in the plasma (oral administration): about 7 hours |
| CCOC(=O)[C@H](CCc1ccccc1)N[C@@H](C)C(=O)N1CC2(C[C@H]1C(=O)O)SCCS2 [spirapril] | balanced elimination by the liver and kidneys |  |
